This test addresses T1, human liver recombinant fructose-1,6-bisphosphatase (hFBPase) (Homo sapiens, UniProt P09467).
T1 sequence (P09467 1-338): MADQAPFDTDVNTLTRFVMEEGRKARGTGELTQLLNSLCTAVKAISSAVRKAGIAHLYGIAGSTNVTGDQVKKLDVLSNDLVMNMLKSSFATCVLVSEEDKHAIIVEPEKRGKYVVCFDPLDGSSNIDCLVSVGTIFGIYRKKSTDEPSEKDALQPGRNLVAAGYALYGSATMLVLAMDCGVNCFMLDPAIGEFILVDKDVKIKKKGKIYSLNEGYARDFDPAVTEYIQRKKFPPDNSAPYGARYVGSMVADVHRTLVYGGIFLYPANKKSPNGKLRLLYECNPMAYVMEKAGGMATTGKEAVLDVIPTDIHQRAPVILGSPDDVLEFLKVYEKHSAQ
Nature of the test: Inhibition of human liver recombinant fructose-1,6-bisphosphatase (spectrophotometric coupled PGI/G6PDH assay). The class given is biochemical. Conditions: human liver recombinant enzyme; 0.167 mM fructose-1,6-bisphosphate, pH 7.5, room temperature, 340 nm. On the procedure:
Method for Measuring the Inhibition of Human Liver Recombinant Fructose-1,6-bisphosphatase
The enzymatic activity is measured by using a spectrophotometric method by means of reactions coupling the formation of the product (fructose-6-phosphate) to the reduction of NADP+ via phosphoglucoisomerase (PGI) and glucose-6-phosphate dehydrogenase (G6PDH).
The reaction mixtures (250 μl) are prepared in 96-well plates and are composed of 20 mM triethanolamine, pH 7.5, 2 mM MgCl2, 0.1 mM EDTA, 40 mM ammonium sulfate, 0.5 mM NADP, 1 U/ml G6PDH, 1 U/ml PGI and 0.167 mM of substrate (fructose-1,6-bisphosphate).
The inhibitors are prepared at 10^−2 M in 100% DMSO and tested at 10^−5 M (DMSO 0.1% final).
The reactions are initiated by addition of human liver recombinant enzyme fructose-1,6-bisphosphatase (hFBPase) and monitored for 30 minutes at 340 nm, at room temperature, in a Tecan plate reader.
On to `CCCc1ccc(C(=O)Nc2[nH]c(Cc3ccc(C(=O)O)o3)nc2C(N)=O)cc1` [Example 6, 5-[4-Carbamoyl-5-(4-propylbenzoylamino)-1H-imidazol-2-ylmethyl]furan-2-carboxylic acid], for which the IC50 was 28 µM.
As for `CC(C)(C)c1ccc(C(=O)Nc2[nH]c(Cc3ccc(C(=O)O)o3)nc2C(N)=O)cc1` [Example 6.8, 5-[5-(4-tert-Butylbenzoylamino)-4-carbamoyl-1H-imidazol-2-ylmethyl]furan-2-carboxylic acid], the IC50 was determined as 23 µM.
With `CCCCCc1ccc(NC(=O)Nc2[nH]c(Cc3ccc(C(=O)O)o3)nc2C(N)=O)cc1` [Example 7.8, 5-{4-Carbamoyl-5-[3-(4-pentylphenyl)ureido]-1H-imidazol-2-ylmethyl}furan-2-carboxylic acid], the IC50 is 24 µM.
As to `CC(C)c1cccc(C(C)C)c1NC(=O)Nc1[nH]c(Cc2ccc(C(=O)O)o2)nc1C(N)=O` [Example 7.9, 5-{4-Carbamoyl-5-[3-(2,6-diisopropylphenyl)ureido]-1H-imidazol-2-yl-methyl}furan-2-carboxylic acid], the IC50 worked out at 42 µM.
Regarding `CC(C)(C)c1ccc(C(=O)Nc2[nH]c(Cc3ccc(C(=O)N4CCCC4)o3)nc2C(N)=O)cc1` [Example 8.5, 5-(4-tert-Butylbenzoylamino)-2-[5-(pyrrolidine-1-carbonyl)furan-2-yl-methyl]-1H-imidazole-4-carboxamide], the IC50 was 36 µM.
